Among the test systems are SN12K1 renal; DMS 114 small cell lung; DLD-1 colon; HCC-2998 colon; RXF 393 renal; A498 renal; P388 leukemia; SNB-75 CNS; UACC-62 melanoma; HOP-92 NSCLC; HOP-18 NSCLC; SK-OV-3 ovarian; IGROV1 ovarian; SF-268 CNS; NCI-H226 lung; MDA-N; ACHN renal; DU-145 prostate; SR leukemia; MDA-MB-435.
Common to all, as to test: NCI tumour cell line growth inhibition, 48 h

The structures appear in SMILES notation.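 96-well plates; 48 h exposure; 5 concentrations. Endpoints by linear interpolation between flanking doses. Not reached: highest tested concentration assigned. TGI: concentration producing complete growth inhibition.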

With `Cc1[nH]c(=O)[nH]c(=O)c1/C=C/C(=O)O` (tested in a mixture with another compound), the TGI with SN12K1 renal, with DMS 114 small cell lung, with DLD-1 colon, in the test with HCC-2998 colon, with RXF 393 renal and in the test with A498 renal was more than 625 µM each time. Also, the TGI was more than 625 µM in the test on P388 leukemia; more than 625 µM in the test on SNB-75 CNS; more than 625 µM in the test on UACC-62 melanoma; 623 µM with HOP-92 NSCLC; more than 625 µM in the test on HOP-18 NSCLC; more than 625 µM with SK-OV-3 ovarian. The TGI in the test on IGROV1 ovarian, in the test with SF-268 CNS and with NCI-H226 lung was more than 625 µM throughout.
With `O=c1[nH]nc(NCc2ccccc2)c2nnn(Cc3ccccc3)c12`, the TGI in the test with MDA-N, in the test with ACHN renal, in the test with HCC-2998 colon, in the test on DU-145 prostate, in the test with HOP-92 NSCLC and with SR leukemia was more than 100 µM in each case. Besides, the TGI in the test on MDA-MB-435 is more than 100 µM.
Consider `COc1nc2cccc(C(O)c3ccccc3)c2nc1-c1ccccc1` (centres undefined), for which the TGI in the test with MDA-N is 5.17 µM; in the test on ACHN renal, 72.9 µM; in the test on RXF 393 renal, 14.6 µM; with A498 renal it was 11.7 µM; with SNB-75 CNS, more than 100 µM; in the test on UACC-62 melanoma, 23.9 µM. The TGI in the test with DU-145 prostate turned out to be 26.9 µM; in the test on HOP-92 NSCLC, 31.8 µM; in the test with SR leukemia, 12.4 µM; in the test with MDA-MB-435, 4.79 µM; with IGROV1 ovarian, 44.6 µM; in the test on SF-268 CNS, 33.4 µM. Moreover, the TGI in the test with NCI-H226 lung worked out at 13.3 µM.
Take `CSCC[C@@H]1C(=O)N(C)[C@H](C(C)(C)C)N1C(=O)c1ccccc1`: the TGI in the test on SN12K1 renal, in the test with DMS 114 small cell lung, in the test on DLD-1 colon, with HCC-2998 colon, with RXF 393 renal and in the test with A498 renal was more than 100 µM throughout. The TGI with P388 leukemia, in the test on SNB-75 CNS, in the test on UACC-62 melanoma, in the test on HOP-92 NSCLC, in the test with HOP-18 NSCLC and in the test with SK-OV-3 ovarian was more than 100 µM throughout. Besides, the TGI in the test with IGROV1 ovarian, in the test on SF-268 CNS and in the test on NCI-H226 lung was more than 100 µM in each case.
In the case of `OCC1COc2cc(Cl)c(Cl)cc2O1` (centres undefined), the TGI in the test on MDA-N, in the test on ACHN renal, with HCC-2998 colon, in the test on RXF 393 renal, with A498 renal and with SNB-75 CNS was more than 10 µM each time. Besides, the TGI in the test on UACC-62 melanoma, with DU-145 prostate, in the test with SR leukemia, in the test on MDA-MB-435, in the test with SK-OV-3 ovarian and with IGROV1 ovarian was more than 10 µM each time. Moreover, the TGI in the test with SF-268 CNS and in the test with NCI-H226 lung was more than 10 µM each time.
In the case of `COc1cc(C2c3cc4c(cc3[C@@H](Nc3cccc(CO)c3)C3COC(=O)[C@H]23)OCO4)cc(OC)c1O` (some centres undefined), the TGI was 5.53 µM in the test with SN12K1 renal; 3.82 µM in the test on DMS 114 small cell lung; 4.56 µM in the test with DLD-1 colon; 3.79 µM in the test on HCC-2998 colon; 6.05 µM in the test with RXF 393 renal; 1.77 µM in the test with A498 renal. Further, the TGI in the test with P388 leukemia was 0.369 µM; in the test on SNB-75 CNS it was more than 24.7 µM; in the test on UACC-62 melanoma, 2.76 µM; in the test with HOP-92 NSCLC, 13.3 µM; with HOP-18 NSCLC, 17.4 µM; with SK-OV-3 ovarian, 9.04 µM. Also, the TGI with IGROV1 ovarian came to 17 µM; in the test with SF-268 CNS, 14.5 µM; in the test with NCI-H226 lung it was 1.7 µM.

Values taken from PubChem BioAssay (NCI).
